Source: PMC12410356 (International Journal for Parasitology: Drugs and Drug …, 2025)

Legend:
[1] = tested on: E. multilocularis metacestode vesicles; experiment: Phosphoglucose isomerase (PGI) release assay (damage-marker release) on metacestode vesicles; type: cell-based, Echinococcus multilocularis; conditions: 10 μM; for PGI d5 (relative PGI release): 5 days; for PGI d12 (relative PGI release): 12 days
[2] = tested on: E. multilocularis metacestode vesicles; experiment: Metacestode vesicle viability assay (ATP, CellTiter-Glo); type: cell-based, Echinococcus multilocularis
Procedure: Viability was assessed after 12 days using the same metacestode vesicles as for the PGI release assay. Triton X-100 was added to each well to a final concentration of 0.1 %. Subsequently the metacestode vesicles were broken mechanically and 50 μL of the supernatant was mixed with 50 μL of CellTiter-Glo® buffer (Promega, Dübendorf, Switzerland). Measurements were performed on a HIDEX Sense microplate reader.

[3] = overview screen, singlets, relative to 0.1 % Triton X-100, DMSO subtracted
[4] = overview screen, 10 μM, singlets, 12 days, relative to DMSO control
[5] = confirmation screen, triplicates, mean

| SMILES | PGI d5 (relative PGI release) [1, 3] | PGI d12 (relative PGI release) [1, 3] | Viability d12 (relative viability) [2, 4] | Viability d12 (relative viability) ([2]; 10 µM) | PGI d5 (relative PGI release) [1, 5] | PGI d12 (relative PGI release) [1, 5] | Viability d12 (relative viability) ([2]; confirmation screen, 10 μM, triplicates, mean, 12 days) |
| --- | --- | --- | --- | --- | --- | --- | --- |
| CCCCCCCCCN1C[C@@H](O)[C@H](O)[C@@H](O)[C@@H]1CO [MMV1593513] | -0.861% | -3.193% | 80.9399% | – | – | – | – |
| OCCCCn1cnc2c(O)nc(NCc3ccc(Cl)c(Cl)c3)nc21 [MMV1593542] | -1.805% | -12.5973% | 68.6346% | – | – | – | – |
| C[C@@H](c1nc(-c2ccc(C#N)cc2)cs1)[C@](O)(Cn1cncn1)c1ccc(F)cc1F [MMV1634362] | -1.682% | -23.6483% | – | 103.703% | – | – | – |
| Cc1c(N)cccc1Cn1ccc(OCCc2cccs2)cc1=O [MMV1578557] | -0.9531% | -14.0356% | 70.6385% | – | – | – | – |
| CCCCc1ccc(-c2cc(C(=O)O)cc(-c3ccc(Cl)cc3)n2)cc1 [MMV1580852] | -0.3014% | -1.795% | 95.9921% | – | – | – | – |
| CN1C(=O)C(c2ccccc2)C(=O)N(c2ccccc2)c2cc(C(F)(F)F)ccc21 (stereo not drawn) [MMV1782208] | 0.993% | -0.2102% | 97.8548% | – | – | – | – |
| N#CCN1C(=O)COc2cc(F)c(N3C(=O)c4ccccc4C3=O)cc21 [MMV1579785] | -1.9012% | -13.7258% | 95.5206% | – | – | – | – |
| c1cc(CN2CCCNCCNCCCNCC2)ccc1CN1CCCNCCNCCCNCC1 [MMV1580502] | -0.2909% | 2.621% | 124.773% | – | – | – | – |
| Cc1[nH]c2ccccc2c1CC(=O)N[C@@H](Cc1ccccc1)C(=O)N(C)c1ccccc1 [MMV1580798] | 0.141% | -4.531% | 204.25% | – | – | – | – |
| O=C(c1ccccc1)N1CCN(c2ccccc2NC(=O)C(Cl)(Cl)Cl)CC1 [MMV001014] | 0.3132% | -4.23% | 104.308% | – | – | – | – |
| CNCC(=O)OCc1cccnc1N(C)C(=O)OC(C)[n+]1cnn(C[C@](O)(c2cc(F)ccc2F)[C@@H](C)c2nc(-c3ccc(C#N)cc3)cs2)c1 (stereo partly drawn) [MMV1634494] | -2.972% | -24.8266% | 42.7505% | – | – | – | – |
| O=[N+]([O-])c1cn(Cc2nc(O)nc(O)c2Br)cn1 [MMV1579777] | -0.845% | -7.383% | 93.1599% | – | – | – | – |
| O=[N+]([O-])/C(Br)=C/c1ccc(Br)o1 [MMV1645051] | 1.139% | -20.9736% | 16.4489% | – | – | – | – |
| CC(C)C(=O)N[C@H]1[C@H]([C@H](O)[C@H](O)CO)OC(C(=O)O)=C[C@@H]1N=[N+]=[N-] [MMV1782111] | -0.6196% | 0.1424% | 85.5263% | – | – | – | – |
| COc1ccc2c(c1OC)C(=O)OC2C1c2c(cc3c(c2OC)OCO3)CCN1C (stereo not drawn) [MMV002780] | -0.3679% | -3.872% | 419.126% | – | – | – | – |
| O=C(Cn1cnc2ccccc2c1=O)Nc1ccccc1 [MMV1578891] | -0.325% | -3.282% | 139.913% | – | – | – | – |
| CC(C)(C)NC(=O)[C@@H]1C[C@@H]2CCCC[C@@H]2CN1C[C@@H](O)[C@H](Cc1ccccc1)NC(=O)[C@H](CC(N)=O)NC(=O)c1ccc2ccccc2n1 [MMV637879] | -0.1506% | -17.9883% | – | 108.384% | – | – | – |
| Cc1nc2ccc(Oc3ccccc3)cc2c2c1CCN2CCc1ccccc1 [MMV1634399] | 25.5463% | 44.1623% | 23.583% | – | 0.85% | 15.15% | 116.13% |
| O=C(NCc1ncc(C(F)(F)F)cc1Cl)c1c(Cl)cccc1Cl [MMV689401] | -2.654% | -25.1085% | 22.5442% | – | – | – | – |
| COc1ccc(NS(=O)(=O)c2ccc(Cl)s2)cn1 [MMV1580499] | 0.09331% | -16.9426% | 78.1001% | – | – | – | – |
| CC1(C)C[C@H]1C(=O)N/C(=C\CCCCSC[C@@H](N)C(=O)O)C(=O)O.[Na+] [MMV1613559] | -0.3777% | -1.053% | 85.3181% | – | – | – | – |
